Results on 15 molecules are retold here after ChEMBL document CHEMBL5356975, “Brønsted Acid-Mediated Conversion of Naturally Abundant Lathyrane Diterpenes: Are Rare 10,11-seco-Lathyrane Diterpenes Artifacts?” (J Nat Prod, 2024).

For orientation: IC50 means the point on the concentration scale where inhibition reaches its midpoint. For orientation: inhibition means the drop in the measured response relative to a control, in per cent.

Activity calls are given as the source filed them. The rule behind the calls is not given here.

The first series concerns BV-2. Briefly: Cytotoxicity against mouse BV-2 cells assessed as reduction in cell viability at 20 uM incubated for 24 hrs by MTT assay. Particulars: bv-2, 24 h. The series is classed as toxicity, cell-based. Background: Tetrazolium assays rely on reduction of a dye to a coloured formazan, in cell work by metabolically active cells.
For the molecule `C=C1CC[C@H](C(C)(C)OCCCO)/C=C/[C@@H](C)C(=O)[C@@]2(O)C[C@H](C)[C@H](O)[C@@H]2[C@H]1O`, the Activity entry was “Non-Toxic”.

Turning to `C=C1[C@@H](O)C[C@H](C(C)(C)OC)/C=C/[C@@H](C)C(=O)[C@@]2(O)C[C@H](C)[C@H](O)[C@@H]2[C@H]1O`, the Activity result is reported as “Non-Toxic”.

For the molecule `C=C1[C@@H](O)C[C@H](C(C)(C)OC(=O)CC)/C=C/[C@@H](C)C(=O)[C@@]2(O)C[C@H](C)[C@H](O)[C@@H]2[C@H]1O`, the Activity entry is reported as “Non-Toxic”.

In the case of `C=CC(=O)OC(C)(C)[C@@H]1/C=C/[C@@H](C)C(=O)[C@@]2(O)C[C@H](C)[C@H](O)[C@@H]2[C@@H](O)C(=C)CC1`, the Activity entry is “Non-Toxic”.

Consider `C=C1CC[C@H](C(C)(C)OC)/C=C/[C@@H](C)C(=O)[C@@]2(O)C[C@H](C)[C@H](O)[C@@H]2[C@H]1O`, for which the Activity entry was “Non-Toxic”.

On to `C=C1[C@@H](O)C[C@H](C(C)(C)OC(=O)COCC)/C=C/[C@@H](C)C(=O)[C@@]2(O)C[C@H](C)[C@H](O)[C@@H]2[C@H]1O`, for which the Activity result was “Non-Toxic”.

As for `C=C1CC[C@H](C(C)(C)OC(=O)CC)/C=C/[C@@H](C)C(=O)[C@@]2(O)C[C@H](C)[C@H](O)[C@@H]2[C@H]1O`, the Activity entry is on record as “Non-Toxic”.

`C=C1[C@@H](O)C[C@H](C(C)(C)OCC)/C=C/[C@@H](C)C(=O)[C@@]2(O)C[C@H](C)[C@H](O)[C@@H]2[C@H]1O`: the Activity entry is listed as “Non-Toxic”.

As for `C=C1CC[C@H](C(C)(C)OC(=O)COCC)/C=C/[C@@H](C)C(=O)[C@@]2(O)C[C@H](C)[C@H](O)[C@@H]2[C@H]1O`, the Activity result is reported as “Non-Toxic”.

As to `C=C1[C@@H](O)C[C@H](C(C)(C)OC(C)=O)/C=C/[C@@H](C)C(=O)[C@@]2(O)C[C@H](C)[C@H](O)[C@@H]2[C@H]1O`, the Activity result was “Non-Toxic”.

For `C=CC(=O)OC(C)(C)[C@@H]1/C=C/[C@@H](C)C(=O)[C@@]2(O)C[C@H](C)[C@H](O)[C@@H]2[C@@H](O)C(=C)[C@@H](O)C1`, the Activity result is given as “Non-Toxic”.

For `C=C1[C@@H](O)C[C@H](C(C)(C)OCCCO)/C=C/[C@@H](C)C(=O)[C@@]2(O)C[C@H](C)[C@H](O)[C@@H]2[C@H]1O`, the Activity entry was “Non-Toxic”.

In the case of `C=C1CC[C@H](C(C)(C)OCC)/C=C/[C@@H](C)C(=O)[C@@]2(O)C[C@H](C)[C@H](O)[C@@H]2[C@H]1O`, the Activity entry was “Non-Toxic”.

For the molecule `C=C1CC[C@H](C(C)(C)OC(C)=O)/C=C/[C@@H](C)C(=O)[C@@]2(O)C[C@H](C)[C@H](O)[C@@H]2[C@H]1O`, the Activity entry was “Non-Toxic”.

For a further series, the system named is BV-2. Briefly: Antineuroinflammatory activity in LPS induced mouse BV-2 cells assessed as inhibition of NO production pretreated for 4 hrs followed by LPS addition and measured after 24 hrs by griess reagent based assay. The class given is functional, cell-based.
Details: not given
Turning to `C=C1CC[C@H](C(C)(C)OCCCO)/C=C/[C@@H](C)C(=O)[C@@]2(O)C[C@H](C)[C@H](O)[C@@H]2[C@H]1O`, the IC50 turned out to be 13 µM.

In the case of `C=CC(=O)OC(C)(C)[C@@H]1/C=C/[C@@H](C)C(=O)[C@@]2(O)C[C@H](C)[C@H](O)[C@@H]2[C@@H](O)C(=C)CC1`, the IC50 was 6.2 µM.

Regarding `O=c1c(O)c(-c2ccc(O)c(O)c2)oc2cc(O)cc(O)c12` [QUERCETIN], the IC50 is 10 µM.

With `C=CC(=O)OC(C)(C)[C@@H]1/C=C/[C@@H](C)C(=O)[C@@]2(O)C[C@H](C)[C@H](O)[C@@H]2[C@@H](O)C(=C)[C@@H](O)C1`, the IC50 came to 7.7 µM.

For `C=C1[C@@H](O)C[C@H](C(C)(C)OCCCO)/C=C/[C@@H](C)C(=O)[C@@]2(O)C[C@H](C)[C@H](O)[C@@H]2[C@H]1O`, the IC50 is 18 µM.

The test system of a further series is BV-2. Briefly: Antineuroinflammatory activity in LPS induced mouse BV-2 cells assessed as inhibition of NO production at 20 uM pretreated for 4 hrs followed by LPS addition and measured after 24 hrs by griess reagent based assay relative to control. The class given is functional. Particulars: time 28 hrs.
For `C=C1CC[C@H](C(C)(C)OCCCO)/C=C/[C@@H](C)C(=O)[C@@]2(O)C[C@H](C)[C@H](O)[C@@H]2[C@H]1O`, the inhibition at 20 µM is 63%.

`C=CC(=O)OC(C)(C)[C@@H]1/C=C/[C@@H](C)C(=O)[C@@]2(O)C[C@H](C)[C@H](O)[C@@H]2[C@@H](O)C(=C)CC1`: the inhibition at 20 µM came to 73%.

As to `C=CC(=O)OC(C)(C)[C@@H]1/C=C/[C@@H](C)C(=O)[C@@]2(O)C[C@H](C)[C@H](O)[C@@H]2[C@@H](O)C(=C)[C@@H](O)C1`, the inhibition at 20 µM stood at 70%.

Regarding `C=C1[C@@H](O)C[C@H](C(C)(C)OCCCO)/C=C/[C@@H](C)C(=O)[C@@]2(O)C[C@H](C)[C@H](O)[C@@H]2[C@H]1O`, the inhibition at 20 µM worked out at 56%.

For another series, the system named is BV-2. The series is described as follows: Antineuroinflammatory activity in LPS induced mouse BV-2 cells assessed as reduction in COX-2 protein expression at 10 uM pretreated for 4 hrs followed by LPS addition and measured after 24 hrs by Western blot analysis. The class given is functional, cell-based. Particulars: time 28.0 hrs. On the technique in general: A western blot detects proteins with antibodies after separation by electrophoresis.
On to `C=CC(=O)OC(C)(C)[C@@H]1/C=C/[C@@H](C)C(=O)[C@@]2(O)C[C@H](C)[C@H](O)[C@@H]2[C@@H](O)C(=C)CC1`, for which the result was Active.

A further series concerns BV-2. Briefly: Antineuroinflammatory activity in LPS induced mouse BV-2 cells assessed as reduction in iNOS protein expression at 10 uM pretreated for 4 hrs followed by LPS addition and measured after 24 hrs by Western blot analysis. The series is classed as functional, cell-based. Particulars: time 28.0 hrs.
Turning to `C=CC(=O)OC(C)(C)[C@@H]1/C=C/[C@@H](C)C(=O)[C@@]2(O)C[C@H](C)[C@H](O)[C@@H]2[C@@H](O)C(=C)CC1`, the outcome was Active.
